Where a SMILES comes first, the peptide text is derived from it. Bridges are numbered along the chain shown (N, C = ends).

For this assay, the target named is T1, rat NPR-A (Rattus norvegicus, UniProt P18910).
T1 construct: endogenous in cells; host or cells: rat PC12 cells
T1 sequence (P18910 29-1057): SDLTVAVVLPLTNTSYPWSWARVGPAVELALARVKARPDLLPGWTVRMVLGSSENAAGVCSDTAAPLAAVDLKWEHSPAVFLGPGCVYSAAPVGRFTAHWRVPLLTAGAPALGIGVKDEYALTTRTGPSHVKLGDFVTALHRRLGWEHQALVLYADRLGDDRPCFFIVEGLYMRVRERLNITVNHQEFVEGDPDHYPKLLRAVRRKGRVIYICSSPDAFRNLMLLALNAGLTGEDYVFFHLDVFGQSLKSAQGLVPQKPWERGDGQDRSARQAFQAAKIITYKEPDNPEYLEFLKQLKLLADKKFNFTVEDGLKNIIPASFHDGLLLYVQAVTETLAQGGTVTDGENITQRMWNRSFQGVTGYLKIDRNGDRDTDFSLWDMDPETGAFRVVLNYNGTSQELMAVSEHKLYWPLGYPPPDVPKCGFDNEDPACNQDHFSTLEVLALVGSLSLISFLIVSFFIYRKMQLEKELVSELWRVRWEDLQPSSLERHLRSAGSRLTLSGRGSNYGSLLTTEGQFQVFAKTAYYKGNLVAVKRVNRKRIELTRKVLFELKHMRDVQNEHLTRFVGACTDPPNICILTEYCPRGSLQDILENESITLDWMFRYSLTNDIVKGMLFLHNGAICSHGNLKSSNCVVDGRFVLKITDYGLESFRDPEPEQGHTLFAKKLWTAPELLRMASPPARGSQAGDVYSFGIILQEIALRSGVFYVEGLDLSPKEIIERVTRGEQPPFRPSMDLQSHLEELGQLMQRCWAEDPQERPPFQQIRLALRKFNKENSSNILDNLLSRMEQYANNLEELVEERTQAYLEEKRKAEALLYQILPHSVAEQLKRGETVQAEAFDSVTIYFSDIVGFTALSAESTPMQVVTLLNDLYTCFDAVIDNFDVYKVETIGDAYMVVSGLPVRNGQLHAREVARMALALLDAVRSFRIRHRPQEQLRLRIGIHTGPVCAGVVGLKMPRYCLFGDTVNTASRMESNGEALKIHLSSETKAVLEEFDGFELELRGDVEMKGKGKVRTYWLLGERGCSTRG
The assay can be described thus: cGMP ALPHAscreen, cGMP production in PC12 cells. The class given is cell-based. As to the method:
NP activity can be determined by the effectiveness of the peptide to elicit cGMP production through NPR-A. The cGMP ALPHAscreen evaluates the ability of peptides to stimulate cGMP production in cells through a non-radioactive, homogenous, proximity assay which encompasses […]. […] In order to evaluate the potency of TNPa-e at rNPR-A, TNPa-e were evaluated using the cGMP ALPHAscreen in rat PC12 cells.
Cells were cultured at 5% CO2 and 37 °C. HEK 293 cells were cultured in high glucose DMEM (Gibco, Carlsbad, CA, USA) supplemented with 10% FBS, and 1% penicillin/streptomycin. HEK 293 cells were seeded in media lacking penicillin/streptomycin 24 to 48 h pre-transfection. PC12 cells were cultured in high glucose DMEM (Gibco) supplemented with 10% FBS and 1% penicillin/streptomycin.
The cGMP ALPHAscreen was performed using the ALPHAscreen Protein A detection kit and the biotinylated cGMP supplement (Perkin Elmer, Waltham, MA, USA) with rabbit anti-cGMP polyclonal antibody (Biovision, Mountain View, CA, USA). Cells were detached from the flask and the resulting pellet was resuspended in stimulation buffer (HBSS supplemented with 0.1% w/v BSA and 1 mM IBMX at 37 °C). Cells were added to a white 384-well Optiplate (Perkin Elmer, Waltham, USA) to 30,000 cells per well for HEK 293 cells and 10,000 cells per well for PC12 cells. Cells were incubated with different concentrations of test peptides (concentration range of 1 × 10^−5 to 1 × 10^−11 M in stimulation buffer) at 37 °C for 30 min. Cells were lysed with lysis buffer (1 M HEPES, 0.3% Tween-20, 1% BSA in H2O, pH 7.4). Then 5 μL acceptor-bead mix was added to each well under subdued lighting conditions, followed by 5 μL of donor-bead mix. Plates were incubated for ~12 h, slowly shaking at room temperature. After incubation, the ALPHAscreen signal was measured using an EnVision plate reader (Perkin Elmer). The standard curve consisted of cGMP in a concentration range of 1 × 10^−6 to 1 × 10^−12 M. All data points were acquired in triplicate and were analyzed using GraphPad Prism 5.0 software (GraphPad Software, Inc., San Diego, CA, USA).

Take `CC[C@H](C)[C@H](NC(=O)[C@H](CCCCN)NC(=O)[C@H](CO)NC(=O)[C@H](CC(=O)O)NC(=O)[C@@H](N)CO)C(=O)NCC(=O)N[C@@H](CC(N)=O)C(=O)NCC(=O)N[C@H]1CSSC[C@@H](C(=O)N[C@@H](CC(N)=O)C(=O)N[C@@H](CCCNC(=N)N)C(=O)N[C@H](C(=O)N[C@@H](CCSC)C(=O)N[C@@H](CCC(N)=O)C(=O)N[C@@H](CC(N)=O)C(=O)N2CCC[C@H]2C(=O)N2CCC[C@H]2C(=O)N[C@@H](CCCCN)C(=O)N[C@@H](CCCCN)C(=O)N[C@@H](Cc2ccccc2)C(=O)N[C@@H](CO)C(=O)NCC(=O)N[C@@H](CCC(=O)O)C(=O)O)[C@@H](C)CC)NC(=O)CNC(=O)[C@H](CC(C)C)NC(=O)CNC(=O)[C@H](CO)NC(=O)[C@H](C(C)C)NC(=O)[C@H](CO)NC(=O)CNC(=O)[C@H]([C@@H](C)CC)NC(=O)[C@H](CCCNC(=N)N)NC(=O)[C@H](CC(=O)O)NC(=O)[C@H](CC(C)C)NC(=O)[C@@H]2CCCN2C(=O)[C@H](Cc2ccccc2)NC(=O)CNC(=O)[C@H](Cc2ccccc2)NC1=O` [TNPc] (H-SDSKIGNGCFGFPLDRIGSVSGLGCNRIMQNPPKKFSGE-OH; disulfide 9-25): for the setting “PC12 cells, 30 min at 37 °C, cGMP ALPHAscreen, three to five separate experiments in triplicate, read-out: rNPR-A EC50 (95% CI), potency to stimulate cGMP production”, the EC50 was 100 nM. The “selectivity / difference in potency for rNPR-A over hNPR-A” value (rNPR-A (PC12) versus hNPR-A (HEK 293) cGMP potency) is on record as 100 fold.

(Values after paper PMC10095932 (Molecules, 2023).)
